Here are results for one compound from US6303621A, “Method for treating cancers using a diiodo thyronine analogue having no significant hormonal activity and a vinca alkaloid and compositions comprising the same” (priority 1999, dated 2001).

One data set has as its system MDA-MB-231 xenografts. Kind of data set: Inhibition of MDA-MB-231 xenografts in nude mice. It counts as in vivo, human mammary cancer xenograft in nude mice. The source says: The ability of human tumors to grow as xenografts in athymic mice (e.g., nude mice) provides a useful in vivo model for studying the biological response to therapies for human tumors. Since the first successful xenotransplantation of human tumors into athymic mice (Rygaard et al., 1969, Acta Pathol. Microbial. Scand. 77:758-760), many different human tumor cell lines (e.g., mammary, lung, genitourinary, gastrointestinal, head and neck, glioblastoma, bone and malignant melanomas) have been successfully transplanted and grown into nude mice. Human mammary tumor cell lines, including MCF-7, ZR75-1 and MDA-MB-231, have been established as subcutaneous grafts in nude mice (Warri et al., 1991, Intl. J. Cancer 49:616-23; Ozzello et al., 1980, Eur. J. Cancer 16:553-559; Osbourne et al., 1985, Cancer Res. 45:584-590; Siebert et al., 1983, Cancer Res. 43:2223-2239).
MDA-MB-231 (human mammary cancer) cells were obtained from American Type Culture Collection (Rockville, Md.) and maintained in the recommended growth media. Twenty nude mice were each inoculated subcutaneously with MDA-MB-231 cells (10^6 cells/[…]). To one group often mice, DIME was administered by gavage (250 mg/kg, 10 mL/kg in corn oil) once […] per day, 5 days per week, for a total of 32 days. The other (control) group of ten mice was given administered vehicle only according to the same dosing schedule. Tumors were measured twice weekly using a Vernier caliper, and the mean tumor volume was determined at each time point. Comparisons between groups were made using an unpaired, two-tailed t-test and the results were analyzed using analysis of variance.
For orientation: A xenograft is tissue or cells of one species grown in another, often human tumour cells in immunodeficient mice.

A further data set has as its system cells (DNA breaks). Nature of the data set: DNA breaks in cells incubated with DIME. Format: cell-based.
The test system of the next data set is microtubules. Nature of the data set: Microtubule binding.
The test system of data set [1] is DIME-tolerant cells (DR6, DR7). Nature of the data set: Cell growth of DIME-tolerant cells. It counts as cell-based, human. As for the experimental part: c. MDA-MB-231 human mammary cancer cells were cultured and treated as reported previously by Mendeleyev et al., International Journal of Oncology 10:689-695 (1997) and Zhen et al., International Journal of Oncology 10:689-695 (1997). For the assay of cell growth kinetics cells, were seeded into 2cm^2 wells (24-well plates) at a density of 8×10^3 /cm^2 at the time of seeding. Vincristine (or vinblastine) and DIME (or DIPE) were added from DMSO dilutions (1-2 μl/ 500 μl culture mediim) either from separate drug solutions or for the construction of median effect plot (FIG. 1) from a pre-made mixture of both drugs (e.g. 0.75 μM DIME+2 nM vincristine) and simultaneous dilutions thereof (Chou et al. Eur. J. Biochem. 115: 207-216 (1981)). The cultures were incubated at 37° C. for 4 days and growth rates, leading to near confluency in drug-free controls, were monitored by cell counting in a haemocytometer after detachment by trypsin treatment Mendeleyev et al., International Journal of Oncology 10:689-695 (1997) and Zhen et al., International Journal of Oncology 10:689-695 (1997). […]

For data set [2], the system named is MDA-MB-231 human mammary cancer cells. Nature of the data set: Cell growth kinetics, median effect and isobologram. Format: cell-based. To be noted: 0.75 μM DIME (or DIPE) or 1-2 nM vincristine alone. As for the experimental part:
(§1) c. MDA-MB-231 human mammary cancer cells were cultured and treated as reported previously by Mendeleyev et al., International Journal of Oncology 10:689-695 (1997) and Zhen et al., International Journal of Oncology 10:689-695 (1997). For the assay of cell growth kinetics cells, were seeded into 2cm^2 wells (24-well plates) at a density of 8×10^3 /cm^2 at the time of seeding. Vincristine (or vinblastine) and DIME (or DIPE) were added from DMSO dilutions (1-2 μl/ 500 μl culture mediim) either from separate drug solutions or for the construction of median effect plot (FIG. 1) from a pre-made mixture of both drugs (e.g. 0.75 μM DIME+2 nM vincristine) and simultaneous dilutions thereof (Chou et al. Eur. J. Biochem. 115: 207-216 (1981)). The cultures were incubated at 37° C. for 4 days and growth rates, leading to near confluency in drug-free controls, were monitored by cell counting in a haemocytometer after detachment by trypsin treatment Mendeleyev et al., International Journal of Oncology 10:689-695 (1997) and Zhen et al., International Journal of Oncology 10:689-695 (1997). Mathematical analysis of growth curves and median effects and isobolograms were carried out by published procedures (Chou et al. J. Theor. Biol. 65: 345-356 (1977), Chou et al. Eur. J. Biochem. 115: 207-216 (1981) and Chou et al. Adv. in Enzyme Regulation 22:27-55 (1984)) and error bars indicate SD=Σx^2 +L -(Σx)^2 /n where X is the numerical results with n=3-5.
Kinetics of vincristine-DIME interactions: Interpretation of conventional isobolograms, consisting of plots of I50 values of two drugs alone and in combination is valid only if it is proven kinetically that both drugs bind at mutually exclusive sites.
Isobologram analysis of the combined action of DIME and vincristine is illustrated in FIG. 2, and it is evident that the action of the two drugs in combination exceed an additive effect, which is depicted by a concave curve, contrasting with additive action, which would display a straight line connecting the I50 values for each drug alone (dotted line in FIG. 2). […]

The next data set concerns thyroid. Particulars: rats; as compared to thyroxine; cited from earlier work.
Data set [3] deals with MDA-MB-231 human mammary cancer cells. Nature of the data set: Colony formation (cell killing). It counts as cell-based. As for the experimental part: as §1
(§2) e. Colony formation was quantitated as reported by. Each colony of 50 cells is the outgrowth from one cell, plated 10 days before colony counting.

The subject of another data set is malignant tumor growth. Nature of the data set: Activity of DIME in vivo (general statement).
The test system of data set [4] is DIME-tolerant clones DR6 and DR7. Kind of data set: Colony formation of DIME-tolerant clones. Format: cell-based, human. Particulars: concentrations that reduce colony formation by 10^3 in parent line.
Description: as §2

Data set [5] concerns DIME-tolerant clones.
Description: (§3) DIME-tolerant clones DR6and DR 7 were isolated by incubation of cells in a mediim containing 1.5 μM DIME for 11 days. At that time surviving colonies were picked with the use of cloning rings and plated for growth in fresh mediim still containing 1.5 μM DIME. After two weeks of growth in the presence of drug the cells were aliquoted and frozen. For each experiment a vial of frozen cells was thawed, the cells were plated in the absence of drug, and incubated for 2-3 days in drug-free mediim.
For data set [6], the system named is DIME-tolerant clones. Kind of data set: DIME uptake by DIME-tolerant clones. To be noted: DIME-tolerant clones grown in 1.5 μM DIME.
Description: as §3
For the next data set, the system named is human cancer cells. Kind of data set: Cytostatic / cytocidal activity of DIME analogues on human cancer cells. Format: cell-based. The text has this:
Such tests may also screen for the ability of a particular compound to inhibit malignant tumor cell growth in vitro or in vivo or abolish tumorigenicity of malignant cells.
As will be appreciated by the skilled artisan, many varieties of malignant tumor cell cultures and cell lines may be used to screen for activity, including but not limited to HL-60, HT-144, E-ras-20, DU-145, MDA-168, MCF-7, 855-2 and MDA-MB-231. Of course, other in vitro and/or in vivo assays as will be apparent to the skilled artisan to screen for anti-tumor and/or anti-cancer activity may also be employed to identify effective diiodo thyronine analogues useful in the present invention.

“Also recorded” adds a separate entry of the source.

On to `COC(=O)c1cc(I)c(Oc2ccc(OC)cc2)c(I)c1` [DIME, methyl 3,5-diiodo-4-(4'-methoxyphenoxy) benzoate], for which the “Growth of mammary cancer xenografts (MDA-MB-231)” value with MDA-MB-231 xenografts (250 mg/kg by gavage once daily, 5 days a week for 32 days, nude mice) is given as “significant reduction of malignant tumor growth”. Moreover, the “MDA-MB-231 tumor volume, Day 14 ± SEM” value in the data set on MDA-MB-231 xenografts (DIME 250 mg/kg by gavage, 5 days per week, 32 days, control 284.6 ± 42.0, p = 0.06, in mm³ (unit assumed)) was determined as 172.0 ± 34.3. In the data set on MDA-MB-231 xenografts (DIME 250 mg/kg by gavage, control 622.2 ± 58.1, p = 0.02, in mm³ (unit assumed)), the “MDA-MB-231 tumor volume, Day 21 ± SEM” value amounted to 285.7 ± 62.4. The “MDA-MB-231 tumor volume, Day 32 ± SEM” value in the data set with MDA-MB-231 xenografts (DIME 250 mg/kg by gavage, control 1176.6 ± 222.4, p = 0.01, in mm³ (unit assumed)) worked out at 543.8. Further, in the data set with MDA-MB-231 xenografts (DIME 250 mg/kg vs control), the “% decrease (tumor volume), Day 14” value was 40%; the “% decrease (tumor volume), Day 21” value stood at 54%; the “% decrease (tumor volume), Day 28” value was determined as 56%; the “% decrease (tumor volume), Day 32” value was 54%. Also, the DNA breaks entry with cells (DNA breaks) is “induces DNA breaks”. In addition, in the data set on microtubules, the Binding to microtubules result was “bind to microtubules”. In addition, in data set [1] (DIME removed), the “Doubling time of DIME-tolerant cells after removal of DIME” value was in the range of 40 to 45 h. Moreover, in data set [1] (in the presence of 1.5 μM DIME, cancer cells 20 hrs), the “Doubling time of DIME-tolerant cells” value lay within 70 to 78 h. For the same compound, the “Growth rate with single drug” value in data set [2] was “do not elicit effects that exceed the SD of average cell growth rates; also recorded: fall within SD values”. Besides, the “Inhibition of uptake of iodine into the thyroid” value in the data set on thyroid is 15%. The “Inhibition of colony formation, DIME versus DIPE” value in data set [3] (FIG. 4a) is reported as “equivalency; also recorded: Equivalent effectivity”. Further, in data set [3] (FIG. 8, parent (wild type) cell line), the “Reduction of colony formation in parent cell line (factor)” value is 10^3. The Activity in vivo result with malignant tumor growth was “highly active”. Also, the “Inhibition of colony formation of DR6 and DR7 clones” value in data set [4] is listed as “only marginal inhibition of colony formation”. Also, the “Drug permeation in DIME-tolerant cells” value with DIME-tolerant clones [5] is recorded as “significant decrease of drug permeation”. For the same compound, the “Reduction of DIME uptake” value in the data set on DIME-tolerant clones [6] is 50%. In the data set on human cancer cells, the “Cytostatic and cytocidal activity in cellular assays” value is listed as “highly active”; the “Growth of malignant cell types” value was “inhibit the growth of a variety of malignant cell types”.
